Test results taken from patent publication EP4790066A1, “GLP-1R/GIPR/GCGR TRIPLE AGONIST ANALOGUE AND USE THEREOF” (Shenzhen Bay Laboratory, priority 2023, dated 2025).
*1 amine or outer side, *2 acyl side, *3 side chain or, on linkers, in order; H or OH if unused. Where a SMILES comes first, the peptide text is derived from it. Bridges are numbered along the chain shown (N, C = ends). [ ]: non-standard residue; d: D form. X1 = O=C(O)CCCCCCCCCCCCCCCCCCC(=O)N[C@@H](CCCCNC(=O)COCCOCCNC(=O)COCCOCCNC(=O)CCC(=O)N(CCNC(=O)C[*:1])CCNC(=O)C[*:2])C(=O)O; Phe(2-F) = N[C@@H](Cc1ccccc1F)C(=O)O; αMeK = C[C@](N)(CCCCN)C(=O)O; αMeS = C[C@](N)(CO)C(=O)O; Iva = CC[C@](C)(N)C(=O)O; Aib = CC(C)(N)C(=O)O

Columns and labels:
Format in all cases: cell-based
GLP-1R = biological target: T1, GLP-1R (Homo sapiens, UniProt P43220); test: CreLuc method (CRE-luciferase reporter), HEK293/pGM-CREB-L-Luc/GLP-1R pool; conditions: 6 h incubation, read-out: EC50 (pM) for each receptor GLP-1R
T1 construct: expressed in transfected cells
Outline: (§1)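 Stable HEK293 pools co-expressing each receptor with a CRE-luciferase reporter were plated at 20,000 cells/well in freestyle medium and treated with compound dilution series for 6 h at 37 °C. Luminescence was read with ONE-GLO to derive EC50.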

GCGR = biological target: T2, GCGR (Homo sapiens, UniProt P47871); test: CreLuc method (CRE-luciferase reporter), 293HEK/pGM-CREB-L-Luc/GCGR pool; conditions: 6 h incubation, read-out: EC50 (pM) for each receptor GCGR
T2 construct: expressed in transfected cells
Outline: as §1

GIPR = biological target: T3, GIPR (Homo sapiens, UniProt P48546); test: CreLuc method (CRE-luciferase reporter), HEK293/pGM-CREB-L-Luc/GIPR pool; conditions: 6 h incubation, read-out: EC50 (pM) for each receptor GIPR
T3 construct: expressed in transfected cells
T3 sequence (P48546 22-466): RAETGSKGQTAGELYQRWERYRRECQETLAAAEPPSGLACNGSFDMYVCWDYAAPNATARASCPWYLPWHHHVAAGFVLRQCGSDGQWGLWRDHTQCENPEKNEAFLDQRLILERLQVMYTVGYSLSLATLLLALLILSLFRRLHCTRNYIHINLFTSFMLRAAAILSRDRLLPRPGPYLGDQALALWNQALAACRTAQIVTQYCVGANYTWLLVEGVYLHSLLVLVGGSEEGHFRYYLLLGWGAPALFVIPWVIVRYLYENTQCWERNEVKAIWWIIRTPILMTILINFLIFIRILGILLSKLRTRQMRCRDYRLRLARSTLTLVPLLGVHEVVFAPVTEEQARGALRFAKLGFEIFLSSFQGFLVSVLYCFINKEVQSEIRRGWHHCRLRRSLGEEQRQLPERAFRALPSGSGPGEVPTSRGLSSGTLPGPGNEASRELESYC
Outline: as §1

T1 sequence (P43220 24-463, species assumed): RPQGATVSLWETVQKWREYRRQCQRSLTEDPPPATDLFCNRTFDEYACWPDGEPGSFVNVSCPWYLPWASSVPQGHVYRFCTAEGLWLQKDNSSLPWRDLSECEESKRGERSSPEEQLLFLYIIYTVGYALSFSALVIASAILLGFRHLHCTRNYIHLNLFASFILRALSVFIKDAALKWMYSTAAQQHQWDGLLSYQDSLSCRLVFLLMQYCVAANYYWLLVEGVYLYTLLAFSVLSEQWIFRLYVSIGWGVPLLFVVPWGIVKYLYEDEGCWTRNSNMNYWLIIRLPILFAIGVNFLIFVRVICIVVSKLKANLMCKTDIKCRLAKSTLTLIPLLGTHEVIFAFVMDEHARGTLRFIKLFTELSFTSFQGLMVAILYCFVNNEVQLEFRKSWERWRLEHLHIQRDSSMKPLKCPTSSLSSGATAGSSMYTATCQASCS
T2 sequence (P47871 26-477, species assumed): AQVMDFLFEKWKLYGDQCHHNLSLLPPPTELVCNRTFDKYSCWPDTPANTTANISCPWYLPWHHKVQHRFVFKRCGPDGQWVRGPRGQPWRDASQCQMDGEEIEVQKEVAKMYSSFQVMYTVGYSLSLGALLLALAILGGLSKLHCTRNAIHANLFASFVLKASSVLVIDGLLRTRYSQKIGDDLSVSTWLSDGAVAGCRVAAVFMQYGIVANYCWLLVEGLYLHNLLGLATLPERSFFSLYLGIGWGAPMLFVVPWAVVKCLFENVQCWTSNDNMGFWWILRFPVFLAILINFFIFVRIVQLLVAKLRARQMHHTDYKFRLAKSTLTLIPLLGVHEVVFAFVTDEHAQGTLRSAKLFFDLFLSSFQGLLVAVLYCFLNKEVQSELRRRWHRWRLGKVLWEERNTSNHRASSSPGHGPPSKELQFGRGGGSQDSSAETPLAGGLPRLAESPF

## CC[C@H](C)[C@@H]1NC(=O)[C@H](Cc2ccccc2)NC(=O)[C@@H](NC(=O)[C@H](CCC(N)=O)NC(=O)[C@H](CCC(N)=O)NC(=O)[C@H](C)NC(=O)[C@H](CCCCNC(C)=O)NC(=O)[C@](C)(CCCCN)NC(=O)[C@H](CC(=O)O)NC(=O)[C@H](CC(C)C)NC(=O)[C@H](CC(C)C)NC(=O)[C@@H](NC(=O)[C@](C)(CO)NC(=O)[C@H](Cc2ccc(O)cc2)NC(=O)[C@H](CC(=O)O)NC(=O)[C@H](CO)NC(=O)[C@@H](NC(=O)[C@H](Cc2ccccc2F)NC(=O)[C@@H](NC(=O)CNC(=O)[C@H](CCC(N)=O)NC(=O)C(C)(C)NC(=O)[C@@H](N)Cc2ccc(O)cc2)[C@@H](C)O)[C@@H](C)O)[C@@H](C)CC)CSCC(=O)NCCN(C(=O)CCC(=O)NCCOCCOCC(=O)NCCOCCOCC(=O)NCCCC[C@H](NC(=O)CCCCCCCCCCCCCCCCCCC(=O)O)C(=O)O)CCNC(=O)CSC[C@@H](C(=O)NCC(=O)NCC(=O)N2CCC[C@H]2C(=O)N[C@@H](CO)C(=O)N[C@@H](CO)C(=O)NCC(=O)N[C@@H](C)C(=O)N2CCC[C@H]2C(=O)N2CCC[C@H]2C(=O)N2CCC[C@H]2C(=O)N[C@@H](CO)C(N)=O)NC(=O)[C@H](CC(C)C)NC(=O)[C@H](CC(C)C)NC(=O)[C@H](Cc2ccc(O)cc2)NC(=O)[C@H](CCC(=O)O)NC1=O [TG56] (H-Y[Aib]QGT[Phe(2-F)]TSDY[αMeS]ILLD[αMeK]K(Ac)AQQCFIEYLLCGGPSSGAPPPS-NH2; linker 21-28 via X1)
GLP-1R
  EC50: 197 pM
GCGR
  EC50: 681 pM
GIPR
  EC50: 39.5 pM

## CC[C@H](C)[C@@H]1NC(=O)[C@H](Cc2ccccc2)NC(=O)[C@@H](NC(=O)C(C)(C)NC(=O)[C@H](CCC(N)=O)NC(=O)[C@H](C)NC(=O)[C@H](CCCCNC(C)=O)NC(=O)[C@H](CCCCN)NC(=O)[C@H](CC(=O)O)NC(=O)[C@H](CC(C)C)NC(=O)[C@](C)(CC)NC(=O)[C@@H](NC(=O)[C@H](CO)NC(=O)[C@H](Cc2ccc(O)cc2)NC(=O)[C@H](CC(=O)O)NC(=O)[C@H](CO)NC(=O)[C@@H](NC(=O)[C@H](Cc2ccccc2F)NC(=O)[C@@H](NC(=O)CNC(=O)[C@H](Cc2c[nH]cn2)NC(=O)C(C)(C)NC(=O)[C@@H](N)Cc2c[nH]cn2)[C@@H](C)O)[C@@H](C)O)[C@@H](C)CC)CSCC(=O)NCCN(C(=O)CCC(=O)NCCOCCOCC(=O)NCCOCCOCC(=O)NCCCC[C@H](NC(=O)CCCCCCCCCCCCCCCCCCC(=O)O)C(=O)O)CCNC(=O)CSC[C@@H](C(=O)NCC(=O)NCC(=O)N2CCC[C@H]2C(=O)N[C@@H](CO)C(=O)N[C@@H](CO)C(=O)NCC(=O)N[C@@H](C)C(=O)N2CCC[C@H]2C(=O)N2CCC[C@H]2C(=O)N2CCC[C@H]2C(=O)N[C@@H](CO)C(N)=O)NC(=O)[C@H](CC(C)C)NC(=O)[C@H](CC(C)C)NC(=O)[C@H](Cc2ccc(O)cc2)NC(=O)[C@H](CCC(=O)O)NC1=O [TG66] (H-H[Aib]HGT[Phe(2-F)]TSDYSI[Iva]LDKK(Ac)AQ[Aib]CFIEYLLCGGPSSGAPPPS-NH2; linker 21-28 via X1)
GLP-1R
  EC50: 435 pM
GCGR
  EC50: 201 pM
GIPR
  EC50: 34.7 pM
